Paper PMC9732823, “Discovery of Dual Aβ/Tau Inhibitors and Evaluation of Their Therapeutic Effect on a Drosophila Model of Alzheimer’s Disease” (ACS Chemical Neuroscience, 2022)

Assays:
[1] = Solubility in the in vitro aggregation assay conditions; conditions: dedicated solubility assays
Protocol: * The results are the mean of at least two independent measurements each performed in duplicate.
1 Compounds were measured at 50 μM.
NS = not soluble in the assay conditions

[2] = tested on: Arctic Aβ42 Drosophila flies; assay: Climbing assay in Arctic Aβ42 Drosophila flies; conditions: 20 μM in fly food
Protocol: Thus, we performed behavioral tests to assess the climbing abilities of Aβ42Drosophila flies with and without treatment with 22 (20 μM), 23 (20 μM), and doxycycline (50 μM), compared to control flies.
The transactivating protein GAL4 is placed under the control of a specific promoter, with its own spatial and temporal patterns, in this case, Elav, whereas the upstream activation sequence (UAS) localized upstream, the locus controlled by the UAS-Gal4; in our study, UAS expresses construct for the E22G variant of Aβ42 (Arctic Aβ42) (AlzArc2).[56],[64] Around 150 flies (half female/male) for each compound tested were collected and divided into groups of 25 flies. At the top of the media, 25 μL of doxycycline (50 μM), 22 (20 μM), or 23 (20 μM) were added fresh anytime the flies were flipped.
Briefly, males and females 25 per vial were kept at 25 °C. The climbing test was performed on days 7, 14, and 21 after birth. […] The protocol was repeated 10 times at 5-min intervals.

[3] = tested on: cerebellar granule neurons (CGNs); assay: Neurotoxicity on primary cultures of cerebellar granule neurons (nuclei counting after Hoechst staining); conditions: differentiated CGNs, 24 h, percentage of healthy nuclei on total nuclei, mean ± SEM of three experiments
[4] = biological target: T1, preaggregated Aβ42 (Homo sapiens, UniProt P05067); assay: Optical properties of 23 in the presence of aggregated Aβ42 (fluorescence emission spectra); assay type: binding; conditions: 23 0.375 μM, Aβ42 0.75 μM, Gly-NaOH buffer 50 mM pH 8.5, λexc = 374 nm
T1 construct: (HFIP)-pretreated Aβ42 samples (Bachem AG, Switzerland); purchased Bachem AG, Switzerland
Excerpt: The interaction of a fluorescent compound with three-dimensionally organized Aβ42 fibrils may lead to a change in its fluorescent properties as a consequence of either a reduction of flexibility due to multiple-interaction points and/or of a change in compound–solvent interactions because of the insertion of the compound within fibril helices. […] This assay setup allows the use of a slightly higher amount of DMSO, which is sufficient to grant compound solubility, because addition of the tested compound to Aβ42 samples is performed when fibrillization has already occurred.
Thus, we recorded the emission spectra of compound 23 in the absence and presence of preaggregated Aβ42.
As reported in a previously published protocol,[42] 1,1,1,3,3,3,-hexafluoro-2-propanol (HFIP)-pretreated Aβ42 samples (Bachem AG, Switzerland) were solubilized with a CH3CN/0.3 mM Na2CO3/250 mM NaOH (48.4:48.4:3.2) mixture to obtain a 500 μM solution. […]
A 1.5 mM stock solution of 23 in methanol was prepared and diluted in 50 mM glycine–NaOH buffer (pH 8.5) to a final concentration of 0.375 μM. Excitation and emission fluorescence spectra in the absence and in the presence of preaggregated Aβ42 (0.75 μM) were recorded using the following instrument setup: λexc = 374 nm, emission range = 400–600 nm; λem = 473 nm; excitation range = 250–460 nm; bandwidth (Ex) = 5 nm; bandwidth (Em) = 5 nm; scanning speed = […].

[5] = biological target: T2, Aβ42 (Homo sapiens, UniProt P05067); assay: Inhibition of Aβ42 aggregation in intact E. coli cells overexpressing Aβ42 (ThS fluorescence); assay type: cell-based, Escherichia coli
T2 construct: expressed in transfected cells; host or cells: Escherichia coli BL21 (DE3), pET28a
Method in brief: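 E. coli BL21(DE3) expressing Met-Aβ42 grown in M9 with 250 μM ThS, induced with IPTG at OD600 0.6 alongside 10 μM compound, then overnight at 37 °C. ThS emission at 485 nm (ex 440 nm) normalised to OD600. 100% = induced cells without drug, 0% = non-induced cells.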

T2 sequence (P05067 672-713 limits assumed): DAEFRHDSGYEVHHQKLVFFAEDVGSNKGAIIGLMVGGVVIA
T1 sequence (P05067 672-713 limits assumed): as above

CN(C)CCN1C(=O)S/C(=C\c2ccc3c(c2)C(C)(C)c2cc(/C=C4\SC(=O)N(CCN(C)C)C4=O)ccc2-3)C1=O [Compound 23, (5Z,5′Z)-5,5′-((9,9-Dimethyl-9H-fluorene-2,7-diyl)bis(methanylylidene))bis(3-(2-(dimethylamino)ethyl)thiazolidine-2,4-dione)]
solubility in Aβ42 ThT-based assay condition [1]: too limited to grant trustable results
climbing abilities of Aβ42 Drosophila flies on day 21 ([2]; day 21): no difference between the treated and untreated flies
climbing abilities of Aβ42 Drosophila flies ([2]; days 7, 14, 21 post-eclosion): partially recovered phenotype that lasted until day 14
% survival neurotoxicity @ 10 μM [3]: 87.9 ± 3.4%
change of fluorescence emission upon binding to preaggregated Aβ42 [4]: strong hyperchromic effect upon binding
% inhibition Aβ42 aggregation @ 10 μM ([5]; intact E. coli cells, compound 10 μM, mean ± SEM of four independent experiments, 10 µM): 44.8 ± 4.7%
inhibition at 10 µM ([5]; read-out: % inhibition Aβ42 aggregation @ 10 μM, intact E. coli cells, compound 10 μM, mean ± SEM of four independent experiments): > 40%
